# Laboratory results published in PMC7385626 (Scientific Reports, 2020).
# System: CT-DNA
# Experiment: Ethidium bromide exchange (fluorescence quenching) study
# Assay type: binding, calf
# Method: Fig. S13. The emission spectra of EB-bound (a) DNA solutions in the absence and presence of increasing concentrations of 2, 3, and 4 25 μM (b), 50 μM (c), and 75 μM (d). [EB]=10.0 μM (e), [DNA] 50.0 μM. […] (µM) for determining KSV.
row,Substance,"KSV (Stern–Volmer quenching constant, EB-DNA)"
1,[Cd(N-bishydeten)]4[Ag(CN)2]8[Ag(CN)]2 [Complex 4],1.1 ± 0.12 × 10^3 M^−1
2,[Cu(N-bishydeten)Ag3(CN)5] [Complex 2],5.0 ± 0.32 × 10^3 M^−1
3,[Zn(N-bishydeten)Ag3(CN)5] [Complex 3],13.7 ± 0.41 × 10^3 M^−1

# System: HT29
# Experiment: BrdU Cell Proliferation Assay (BCPA)
# Assay type: cell-based, human
# From the text: The antiproliferative activities of Ag(I) molecules and the starting molecules of the parent molecules, N-bishydeten and [Ag(CN)2]^− compound, on cells, were monitored utilizing by the BrdU Cell Proliferation Assay (BCPA) (Fig. 6).
# The antiproliferative activity of the 2, 3, 4, [Ag(CN)2]^− and 5FU against various cell lines (HeLa ATCC CCL-2, C6 cells ATCC CCL-107, HT29 ATCC HTB-38, and Vero ATCC CCL-81) were preserved and maintained in Dulbecco’s modified eagle’s medium, supplemented with %2 antibiotic (Streptomycin-Penicillin) solution and 10% fetal bovine serum.
# The cell suspension including 5×10^3 cells in 100 µL was supplied into the well cell plates (96-well cell). The therapies of these cells with 2, 3, 4 and [Ag(CN)2]^− in DMSO (max 0.1% DMSO) and 5-Florouracil (5 FU) molecule in DMSO (max 0.1% DMSO) separately at concentration 0.25, 0.50, 1.00, 1.50, 2.00, 2.50, 3.75, and 5.00 µg/mL were carried out. The last volume was adapted to 200 µL by mixture and DMEM and also incubated for 24 h at 37°C with 5% CO2. The antiproliferative activities of the 2, 3, 4 and [Ag(CN)2]^− were determined with using BrdU Cell proliferation ELISA Kit conforming to manufacturer’s assay.
# IC50 values the concentration of a factor which required for other method of in vitro.
row,Substance,IC50
1,[Cd(N-bishydeten)]4[Ag(CN)2]8[Ag(CN)]2 [Complex 4],480 ± 80 nM
2,[Cu(N-bishydeten)Ag3(CN)5] [Complex 2],870 ± 90 nM
3,[Zn(N-bishydeten)Ag3(CN)5] [Complex 3],2370 ± 320 nM

# System: C6, HeLa, and HT29 cells
# Experiment: DNA laddering (internucleosomal DNA fragmentation)
# Assay type: cell-based
# Method: Here, appearances of apoptotic morphology and DNA fragmentation may be a result of the activation of the extrinsic apoptotic pathways, including Ca^2+ dependent endonucleases. Apoptosis assay is determined by controlling cell death which included cleavage of DNA molecule into regular fragments. In this part, we observed that our molecules could act through containing apoptosis on some cells. More studies were conducted to obtain the antiproliferative and apoptotic potentials of Ag molecules which are consistent with this work[70],[75],[75],[79],[80].
# By growing C6, HeLa, and HT29 cells were incubated with the molecules at 37 °C for overnight, DNA molecule was isolated in this part, and DNA fragmentation was visualized by agarose gel electrophoresis. […] A-HT29: 1, DNA standard; 2, HT29 Control; 3, HT29 + 2; 4, HT29 + 3; 5, HT29 + 4. B-C6: 1, DNA standard; 2, C6 + 2; 3, C6 + 3; 4, C6 + 4; 5, C6 Control. C-HeLa: 1, DNA standard; 2, HeLa + 2; 3, HeLa + 3; 4, HeLa + 4; 5, HeLa Control.
# . Treated cell was harvested using a plastic scraper, and these fixed with 70 % ethanol, and also incubated for 48 hours. The ethanol amount was removed by centrifugation and air drying. The cell pellet was resuspended in 55 μL phosphate-citrate buffer (consisting of 192 parts of 0.2 M Na2HPO4 and 8 parts of 0.1 M citric acid, pH 7.8), and incubated at 37°C for 30 min in a shaker incubator. A 45 μL of supernatant was transferred to a microsantrifuge tube, mixed with 5 μL 0.25% Tween20 solution and 5 μL RNase A enzyme solution and also incubated for 30 min in a shaker incubator. […]
row,Substance,DNA fragmentation (DNA laddering)
1,[Cd(N-bishydeten)]4[Ag(CN)2]8[Ag(CN)]2 [Complex 4],induced the organization of DNA fragmentation
2,[Cu(N-bishydeten)Ag3(CN)5] [Complex 2],induced the organization of DNA fragmentation
3,[Zn(N-bishydeten)Ag3(CN)5] [Complex 3],induced the organization of DNA fragmentation

# System: HT29 cells
# Experiment: TUNEL assay
# Assay type: cell-based, human
# Method: […]. We have evaluated the apoptotic effect of the molecules on HT29 cells utilizing the TUNEL method as an immunohistological study to reveal their mechanism of action on cells. The apoptotic activity of the Ag(I) compounds was examined in human colon cancer cells, HT29. […]. […] […].
# Figure 8 Phase-contrast and Fluorescence and image of the HT29 cancer cell line examined by TUNEL assay. […].
# In situ finding of apoptosis was conducted utilizing a TUNEL method kit conforming to the manufacturer’s mechanism. HT29 cells (30.000 cells/chamber slide section) were conveyed in poly-L-lysine covered chamber slide. […]. Finally, slide was gently washed with cold DPBS and added 4 % paraformaldehyde for fixation for 60 min at room temperature. Following incubation, the cells were blocked with freshly prepared 3 % H2O2 in methanol at room temperature. Then, the cells were exposed to permeabilized solution (0.1 % sodium citrate and 0.1 % Triton X-100) for 2 minutes on ice. At this stage in order to prepare a DNase I enzyme treated as positive control, 10 μl of DNase-I and 90 μl its buffer was added to slide and incubated at room temperature for 10 minutes. The compotent cell was transferred into TUNEL reaction mixture (50 μL/section) involving a TdT and fluorescein-dUTP mix for 1 h at 37 °C, in a humidified phase and protected from light. In the end of the process, the positive cell nuclei obtained a green fluorescent signal which visualized by a Leica fluorescent microscope.
row,Substance,apoptosis by TUNEL
1,[Cd(N-bishydeten)]4[Ag(CN)2]8[Ag(CN)]2 [Complex 4],significantly triggered apoptosis
2,[Cu(N-bishydeten)Ag3(CN)5] [Complex 2],significantly triggered apoptosis
3,[Zn(N-bishydeten)Ag3(CN)5] [Complex 3],significantly triggered apoptosis

# System: S. aureus ATCC29213
# Experiment: Disc diffusion assay
# Assay type: cell-based, Staphylococcus aureus
# Method: (§1) Therefore, the pathogen bacterial flora and the opportunistic agents may be taken into consideration both in the management of cancer patients and in individual susceptibility to cancer. Indeed, dual acting factors with antimicrobial and antiproliferative potentials can result in improved therapeutic efficacy for cancer cell patients or reduced cancer predisposition. […]. In this study, 10 microbial cultures of this part, belonging to ten types of bacterial were used. The culture was grown in Mueller–Hinton Broth (Merck) for all the bacterial strains at 36 °C. Antimicrobial test was carried out by using disc-diffusion assay utilizing 100 µL of suspension with 10^8 CFU/mL of bacteria and 10^6 CFU/mL of yeast spread on Nutrient Agar and Potato Dextrose Agar, respectively. Also, the blank disc (Oxoid = 6 mm in diameter) was impregnated with 20 µL of each substance (105 µg/disc) and placed on the inoculated agar. Negative controls ([…]) were prepared using the same solvent (water) employed to dissolve each substance. […]. The inoculated plate was incubated at 36 °C for clinical bacterial strains. Antimicrobial activities were evaluated by obtaining the zone of inhibitory effect against the test organisms.
row,Substance,"inhibition zones, S. aureus ATCC29213"
1,[Cd(N-bishydeten)]4[Ag(CN)2]8[Ag(CN)]2 [Complex 4],30 ± 1.0 mm
2,[Cu(N-bishydeten)Ag3(CN)5] [Complex 2],37 ± 1.0 mm
3,[Zn(N-bishydeten)Ag3(CN)5] [Complex 3],25 ± 0.58 mm

# System: B. cereus DSM 4312
# Experiment: Disc diffusion assay
# Assay type: cell-based, Bacillus Cereus
# Method: as §1
row,Substance,"inhibition zones, B. cereus DSM 4312"
1,[Cd(N-bishydeten)]4[Ag(CN)2]8[Ag(CN)]2 [Complex 4],36 ± 1.0 mm
2,[Cu(N-bishydeten)Ag3(CN)5] [Complex 2],30 ± 0.58 mm
3,[Zn(N-bishydeten)Ag3(CN)5] [Complex 3],34 ± 0.0 mm

# System: St. pyogenez ATCC176
# Experiment: Disc diffusion assay
# Assay type: cell-based, Steptococcus Pyogerez
# Method: as §1
row,Substance,"inhibition zones, St. pyogenez ATCC176"
1,[Cd(N-bishydeten)]4[Ag(CN)2]8[Ag(CN)]2 [Complex 4],26 ± 0.0 mm
2,[Cu(N-bishydeten)Ag3(CN)5] [Complex 2],32 ± 0.58 mm
3,[Zn(N-bishydeten)Ag3(CN)5] [Complex 3],29 ± 0.58 mm

# System: S. gallinarum
# Experiment: Disc diffusion assay
# Assay type: cell-based, Salmonella Gallinarum
# Method: as §1
row,Substance,"inhibition zones, S. gallinarum"
1,[Cd(N-bishydeten)]4[Ag(CN)2]8[Ag(CN)]2 [Complex 4],37 ± 1.0 mm
2,[Cu(N-bishydeten)Ag3(CN)5] [Complex 2],35 ± 1.0 mm
3,[Zn(N-bishydeten)Ag3(CN)5] [Complex 3],35 ± 0.58 mm

# System: S. enteridis ATCC13076
# Experiment: Disc diffusion assay
# Assay type: cell-based, Salmonella Enteritidis
# Method: as §1
row,Substance,"inhibition zones, S. enteridis ATCC13076"
1,[Cd(N-bishydeten)]4[Ag(CN)2]8[Ag(CN)]2 [Complex 4],36 ± 1.0 mm
2,[Cu(N-bishydeten)Ag3(CN)5] [Complex 2],30 ± 0.58 mm
3,[Zn(N-bishydeten)Ag3(CN)5] [Complex 3],33 ± 0.58 mm
